Source: PubChem BioAssay AID330 (DTP/NCI, 2004)
Several values for one entry are separate records, joined by “and”; a condition that tells them apart may be missing. Equal values may be shown once. Inconclusive results and toxic doses are left out. How the source made its calls: active means survival T/C of 150% or more; inactive means T/C below 125% in these data.

Tested on: P388 leukemia ip, CD2F1 mice, survival T/C
Assay: NCI In Vivo Anticancer Drug Screen. Data for tumor model P388 Leukemia (intraperitoneal) in CD2F1 (CDF1) mice
Conditions: endpoint: median survival time, higher = longer survival
Outline: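 Mice carrying the transplanted tumor received test compound or vehicle. Survival was recorded in each group, and the value is the treated-group measurement divided by that of the vehicle-treated control group.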

[1] = dose: 100.0 mg/kg/injection, schedule: Q04DX003 (ip), vehicle: saline with Tween-80
[2] = dose: 50.0 mg/kg/injection, schedule: Q01DX005 (ip), vehicle: saline with Tween-80
[3] = dose: 100.0 mg/kg/injection, schedule: Q01DX005 (ip), vehicle: saline with Tween-80
[4] = dose: 200.0 mg/kg/injection, schedule: Q01DX005 (ip), vehicle: saline with Tween-80
[5] = dose: 60.0 mg/kg/injection, schedule: Q01DX005 (ip), vehicle: saline with Tween-80
[6] = dose: 120.0 mg/kg/injection, schedule: Q01DX005 (ip), vehicle: saline with Tween-80
[7] = dose: 240.0 mg/kg/injection, schedule: Q01DX005 (ip), vehicle: saline with Tween-80
[8] = dose: 12.5 mg/kg/injection, schedule: Q01DX009 (ip), vehicle: Klucel (hydroxypropylcellulose) (HPC)
[9] = dose: 25.0 mg/kg/injection, schedule: Q01DX009 (ip), vehicle: Klucel (hydroxypropylcellulose) (HPC)
[10] = dose: 50.0 mg/kg/injection, schedule: Q01DX009 (ip), vehicle: saline with Tween-80
[11] = dose: 100.0 mg/kg/injection, schedule: Q01DX009 (ip), vehicle: saline with Tween-80
[12] = dose: 200.0 mg/kg/injection, schedule: Q01DX009 (ip), vehicle: saline with Tween-80

Measured: T/C

Cc1noc(NCc2ccccc2)c1C
inactive: [1] 104 % of control | dose: 200.0 mg/kg/injection, schedule: Q04DX003 (ip), vehicle: saline with Tween-80 101 % of control | dose: 400.0 mg/kg/injection, schedule: Q04DX003 (ip), vehicle: saline with Tween-80 100 % of control

CC1OCC(O)C(C(O)C(=O)CN(Cc2ccccc2)Cc2ccccc2)O1 (configuration not stated)
inactive: [2] 99 % of control | [3] 99 % of control | [4] 91 % of control

O=C(NCCCBr)c1csc(-c2csc(CCNC(=O)C(F)(F)F)n2)n1
inactive: dose: 6.25 mg/kg/injection, schedule: Q01DX005 (ip), vehicle: saline with Tween-80 89 % of control | dose: 12.5 mg/kg/injection, schedule: Q01DX005 (ip), vehicle: saline with Tween-80 104 % of control | dose: 25.0 mg/kg/injection, schedule: Q01DX005 (ip), vehicle: saline with Tween-80 95 % of control | [2] 97 % of control | [3] 90 % of control | [4] 87 % of control

CC(=O)OC1CC(n2cc(C)c(=O)[nH]c2=O)OC1COP(=O)(N1CC1)N1CC1 (configuration not stated)
inactive: dose: 25.0 mg/kg/injection, schedule: Q04DX003 (ip), vehicle: saline with Tween-80 104 % of control | dose: 50.0 mg/kg/injection, schedule: Q04DX003 (ip), vehicle: saline with Tween-80 112 % of control | [1] 124 % of control

CN1C(c2ccccc2)=NN=C(C(F)(F)F)N1C
inactive: dose: 100.0 mg/kg/injection, schedule: Q01DX001 (ip), vehicle: distilled water + Tween-80 + alcohol 98 % of control | dose: 200.0 mg/kg/injection, schedule: Q01DX001 (ip), vehicle: distilled water + Tween-80 + alcohol 101 % of control | dose: 400.0 mg/kg/injection, schedule: Q01DX001 (ip), vehicle: distilled water + Tween-80 + alcohol 106 % of control

O=C(CC(O)(C(F)(F)F)C(F)(F)F)CC(O)(C(F)(F)F)C(F)(F)F
inactive: dose: 0.5 mg/kg/injection, schedule: Q04DX003 (ip), vehicle: saline + alcohol 95 % of control | dose: 1.0 mg/kg/injection, schedule: Q04DX003 (ip), vehicle: saline + alcohol 100 % of control | dose: 1.25 mg/kg/injection, schedule: Q04DX003 (ip), vehicle: saline with Tween-80 100 % of control and 95 % of control | dose: 2.0 mg/kg/injection, schedule: Q04DX003 (ip), vehicle: saline + alcohol 90 % of control | dose: 2.5 mg/kg/injection, schedule: Q04DX003 (ip), vehicle: saline with Tween-80 100 % of control | dose: 5.0 mg/kg/injection, schedule: Q04DX003 (ip), vehicle: saline with Tween-80 100 % of control and 91 % of control

CCCOC1NC(=O)Oc2ccccc21 (configuration not stated)
inactive: [5] 101 % of control and 104 % of control and 106 % of control | [6] 104 % of control and 111 % of control and 117 % of control | [7] 114 % of control and 117 % of control

Cc1cc2nc(N(C)C)cc(N(C)C)c2cc1C
inactive: [8] 115 % of control | [9] 109 % of control | dose: 50.0 mg/kg/injection, schedule: Q01DX009 (ip), vehicle: Klucel (hydroxypropylcellulose) (HPC) 100 % of control and 105 % of control

CC(C)CC1NC(CC(C)C)N2C(CC(C)C)N12 (configuration not stated)
inactive: dose: 100.0 mg/kg/injection, schedule: Q01DX001 (ip), vehicle: Klucel (hydroxypropylcellulose) (HPC) 103 % of control | dose: 200.0 mg/kg/injection, schedule: Q01DX001 (ip), vehicle: Klucel (hydroxypropylcellulose) (HPC) 103 % of control | dose: 400.0 mg/kg/injection, schedule: Q01DX001 (ip), vehicle: Klucel (hydroxypropylcellulose) (HPC) 99 % of control

C[n+]1c(-c2cccc(OCCCCCCCOc3cccc(-c4c5cc(N)ccc5c5ccc(N)cc5[n+]4C)c3)c2)c2cc(N)ccc2c2ccc(N)cc21
inactive: dose: 0.05 mg/kg/injection, schedule: Q01DX009 (ip), vehicle: water 123 % of control | dose: 25.0 micrograms/kg/injection, schedule: Q01DX009 (ip), vehicle: water 103 % of control | dose: 50.0 micrograms/kg/injection, schedule: Q01DX009 (ip), vehicle: water 118 % of control | dose: 100.0 micrograms/kg/injection, schedule: Q01DX009 (ip), vehicle: water 120 % of control | dose: 200.0 micrograms/kg/injection, schedule: Q01DX009 (ip), vehicle: water 100 % of control

Nc1nc(NCCCc2ccccc2)c(N=Nc2ccccc2)c(=O)[nH]1
inactive: [5] 105 % of control | [6] 105 % of control | [7] 105 % of control

Cn1c(=O)c2c(=S)sc(=S)[nH]c2n(C)c1=O
inactive: dose: 25.0 mg/kg/injection, schedule: Q04DX002 (ip), vehicle: saline with Tween-80 106 % of control | dose: 50.0 mg/kg/injection, schedule: Q04DX002 (ip), vehicle: saline with Tween-80 106 % of control | dose: 100.0 mg/kg/injection, schedule: Q04DX002 (ip), vehicle: saline with Tween-80 106 % of control

O=C(NC(Cc1cnc[nH]1)C(=O)O)c1ccccc1 (configuration not stated)
inactive: [10] 92 % of control | [11] 98 % of control | [12] 98 % of control

O=C1NC(=O)C2(N1)C(=O)c1cccc3cccc2c13 (configuration not stated)
inactive: dose: 50.0 mg/kg/injection, schedule: Q01DX009 (ip), vehicle: distilled water + alcohol 100 % of control | dose: 100.0 mg/kg/injection, schedule: Q01DX009 (ip), vehicle: distilled water + alcohol 102 % of control | dose: 200.0 mg/kg/injection, schedule: Q01DX009 (ip), vehicle: distilled water + alcohol 95 % of control

CN(C)S(=O)(=O)CC(O)C(Cl)(Cl)Cl (configuration not stated)
inactive: dose: 50.0 mg/kg/injection, schedule: Q01DX009 (ip), vehicle: saline 100 % of control | dose: 100.0 mg/kg/injection, schedule: Q01DX009 (ip), vehicle: saline 98 % of control | dose: 200.0 mg/kg/injection, schedule: Q01DX009 (ip), vehicle: saline 98 % of control

COC(=O)c1cc(=O)n(-c2ccccc2)c(SC)n1
inactive: dose: 6.25 mg/kg/injection, schedule: Q04DX002 (ip), vehicle: Klucel (hydroxypropylcellulose) (HPC) 106 % of control | dose: 12.5 mg/kg/injection, schedule: Q04DX002 (ip), vehicle: Klucel (hydroxypropylcellulose) (HPC) 96 % of control | dose: 25.0 mg/kg/injection, schedule: Q04DX002 (ip), vehicle: Klucel (hydroxypropylcellulose) (HPC) 98 % of control | dose: 50.0 mg/kg/injection, schedule: Q04DX002 (ip), vehicle: Klucel (hydroxypropylcellulose) (HPC) 104 % of control | dose: 100.0 mg/kg/injection, schedule: Q04DX002 (ip), vehicle: Klucel (hydroxypropylcellulose) (HPC) 100 % of control and 98 % of control

Oc1cc2c(cc1C/C=C/c1ccccc1)OCO2
inactive: dose: 2.5 mg/kg/injection, schedule: Q01DX009 (ip), vehicle: saline with Tween-80 101 % of control | dose: 5.0 mg/kg/injection, schedule: Q01DX009 (ip), vehicle: saline with Tween-80 103 % of control | dose: 10.0 mg/kg/injection, schedule: Q01DX009 (ip), vehicle: saline with Tween-80 101 % of control

CC(=O)OC1C2OC3C=C(C)CCC3(CO)C(C)(C1OC(C)=O)C21CO1 (configuration not stated)
inactive: dose: 0.5 mg/kg/injection, schedule: Q01DX009 (ip), vehicle: saline 108 % of control | dose: 1.0 mg/kg/injection, schedule: Q01DX009 (ip), vehicle: saline 100 % of control | dose: 2.0 mg/kg/injection, schedule: Q01DX009 (ip), vehicle: saline 106 % of control

CN(C)CCOc1ccccc1Cc1ccccc1
inactive: [10] 95 % of control | [11] 100 % of control | [12] 118 % of control

COc1ccc2c(c1OC)C(C(Cl)(Cl)Cl)N1CCc3cc4c(cc3C1=C2)OCO4 (configuration not stated)
inactive: [10] 93 % of control | [11] 90 % of control | [12] 92 % of control

Nc1nc(Sc2ccc([N+](=O)[O-])c3nonc23)c2[nH]cnc2n1
inactive: [8] 115 % of control | [9] 88 % of control
